Cell viability data for one compound are collected here from US20240335508A1, “HYBRID GOLD NANOPARTICLE-LIPID NANOPARTICLES AND METHODS OF USE AND PRODUCTION THEREOF” (THE BOARD OF REGENTS OF THE UNIVERSITY OF OKLAHOMA, priority 2023, published 2024).

The subject of the experiment is TOV-112D cells. The experiment can be described thus: DOX AuNSV cytotoxicity, MTS assay. As to conditions: 0.5 and 0.25 μg/mL DOX. In kind it is cell-based. As to the method:
TOV-112D cells were cultured in RPMI 1640 media containing 10% FBS and 1% penicillin-streptomycin at 37° C. with 5% CO2. Cells were seeded on 96-well plates in 100 μL of media at 7,500 cells per well. The next day, cells were treated in triplicate with NSVs, AuNSVs, DOX, DOX NSVs, and DOX AuNSVs at concentrations of 0.5, 0.25, 0.1, and 0.05 μg/mL DOX equivalence. After 24, 48, and 72 hours of treatment, 10 μL of CellTiter 96® AQueous One Solution Cell Proliferation Assay (MTS) (Promega, Madison, WI) was added to each well and incubated for 3-4 hours. After incubation, the well absorbance was measured at 490 nm with a SPECTROstar plate reader with cell viability calculated from the ratio of absorbance between untreated controls and each treatment group.
(In general: Formazan colour is commonly taken as a measure of viable cells.)

Consider `COc1cccc2c1C(=O)c1c(O)c3c(c(O)c1C2=O)C[C@@](O)(C(=O)CO)C[C@@H]3O[C@H]1C[C@H](N)[C@H](O)[C@H](C)O1` [DOX, Doxorubicin], for which the Cell viability entry was “decreased cell viability faster than either the DOX NSV or DOX AuNSV”.
